This passage reports relative viability results from the supplement of paper PMC10307832.

Common to all, as to assay: relative viability (nuclei count vs DMSO), 5 days (fraction); higher = more cells survive
Compound in assay [1]: C1=CC=C2C(=C1)N=C(S2)C(C#N)C3=NC(=NC=C3)NCCC4=CN=CC=C4 + C[C@@H](Oc1cc(-c2cnn(C3CCNCC3)c2)cnc1N)c1c(Cl)ccc(F)c1Cl [Crizotinib] (partner 1 µM)
The procedure, abridged:
(§1)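 Each reported value is a median over duplicate plates. It expresses relative viability: treated-well nuclei count divided by vehicle-well nuclei count. Lung cancer cell lines in 1536-well plates were dosed by pin tool a day after seeding, alone with one drug or with a fixed anchor-drug dose plus five library-drug doses (not always all listed) in √10 steps, and nuclei were counted after 5 days.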

Compound in assay [2]: C1=CC=C2C(=C1)N=C(S2)C(C#N)C3=NC(=NC=C3)NCCC4=CN=CC=C4 + CS(=O)(=O)N1CCN(Cc2cc3nc(-c4cccc5[nH]ncc45)nc(N4CCOCC4)c3s2)CC1 [Pictilisib] (partner 1 µM)
The procedure, abridged: as §1

Compound in assay [3]: C1=CC=C2C(=C1)N=C(S2)C(C#N)C3=NC(=NC=C3)NCCC4=CN=CC=C4 + CC(=O)Nc1cccc(-n2c(=O)n(C3CC3)c(=O)c3c(Nc4ccc(I)cc4F)n(C)c(=O)c(C)c32)c1 [Trametinib] (partner 0.02 µM)
An outline of the steps:
as §1

Compound in the assay “NVP-TAE684 + Vorinostat”: COc1cc(N2CCC(N3CCN(C)CC3)CC2)ccc1Nc1ncc(Cl)c(Nc2ccccc2S(=O)(=O)C(C)C)n1 [NVP-TAE684] + O=C(CCCCCCC(=O)Nc1ccccc1)NO [Vorinostat] (partner 1 µM)
The procedure, abridged:
as §1

Compound in the assay “NVP-TAE684 + Navitoclax”: COc1cc(N2CCC(N3CCN(C)CC3)CC2)ccc1Nc1ncc(Cl)c(Nc2ccccc2S(=O)(=O)C(C)C)n1 [NVP-TAE684] + CC1(C)CCC(c2ccc(Cl)cc2)=C(CN2CCN(c3ccc(C(=O)NS(=O)(=O)c4ccc(N[C@H](CCN5CCOCC5)CSc5ccccc5)c(S(=O)(=O)C(F)(F)F)c4)cc3)CC2)C1 [Navitoclax] (partner 0.5 µM)
The procedure, abridged: as §1

UMC-11: the relative viability in assay [1] (first compound 0.005 µM) came out at 0.487; in assay [1] (first compound 0.01581 µM), 0.561; in assay [1] (first compound 0.05 µM), 0.602; in assay [1] (first compound 0.1581 µM), 0.654; in assay [1] (first compound 0.5 µM) it was 0.5; in assay [2] (first compound 0.005 µM) it was 0.717. Besides, the relative viability worked out at 0.748 in assay [2] (first compound 0.01581 µM); 0.689 in assay [2] (first compound 0.05 µM); 0.877 in assay [2] (first compound 0.1581 µM); 0.777 in assay [2] (first compound 0.5 µM); 0.741 in assay [3] (first compound 0.01581 µM); 0.664 in assay [3] (first compound 0.05 µM). For the same cell line, the relative viability is 0.839 in assay [3] (first compound 0.1581 µM); 0.831 in assay [3] (first compound 0.5 µM); 0.385 with NVP-TAE684 + Vorinostat (first compound 0.2 µM); 0.336 with NVP-TAE684 + Vorinostat (first compound 0.6325 µM); 0.186 with NVP-TAE684 + Vorinostat (first compound 2 µM); 0.331 with NVP-TAE684 + Navitoclax (first compound 0.2 µM). The relative viability in the assay with NVP-TAE684 + Navitoclax (first compound 0.6325 µM) stood at 0.289; with NVP-TAE684 + Navitoclax (first compound 2 µM), 0.162.
